In US9707239B2, “Compounds that modulate oxidative stress” (vTv Therapeutics LLC, priority 2011, dated 2017):
Entries after “also recorded” stand apart in the source; their conditions may differ.

How the values were obtained:
[1] = test system: human Bach1; experiment: MARE controlled luciferase reporter gene assay in HepG2 cells with or without Bach1 expression; assay type: cell-based; settings: transient transfection, with or without Bach1 expressing plasmid, FIG. 7
Procedure: The ability of Compound 13 to act in a manner similar to CoPP provides evidence for the hypothesis that Bach1 activity is being modulated by the compounds. […] To that end, expression vectors were prepared which contained the HMOX1 mARE promoter element recognized by both Bach1 and Nrf2. This element was placed in control of the reporter gene luciferase. Under conditions of transient transfection of HepG2 cells, the reporter has a low level of basal activity due to the relative ratio of Bach1 and Nrf2 found in the cell. Co-transfection with a Bach1 expressing plasmid leads to repression of luciferase activity. Therefore, one can test whether the compounds can increase the level of luciferase in the cells, thus overcoming Bach1 repression. […] Thus, the tested compound is able to overcome suppression by additional Bach1.

[2] = test system: NHLF cells; experiment: Cytoprotection of cisplatin (CDDP)-treated NHLF cells (propidium iodide staining); assay type: cell-based; settings: NHLF cells, compound 24 hours prior to cisplatin exposure, FIG. 8
Procedure: (§1) A key outcome of Bach1 derepression and Nrf2 activation are the induction of cytoprotective genes. A method to test such cytoprotection is to assess the ability of a compound to protect normal human cells such as lung fibroblasts from toxicity due to cisplatin exposure. A model of cellular cytoprotection was established whereby normal human lung fibroblasts were treated with Bach1 modulators and then subsequently exposed to cisplatin. NHLF cells are very sensitive to cisplatin exposure; following a dose of 200 uM cisplatin, >90% of NHLF cells are propidium iodide positive, a measure of cell death.

[3] = test system: HMOX1; experiment: HMOX1 induction in NHLF cells in the cisplatin cytoprotection model; assay type: cell-based, human; settings: compound 24 hours prior to cisplatin, FIG. 8
Procedure: as §1

[4] = test system: HMOX1; experiment: HMOX1 induction in human bone marrow-derived mesenchymal stem cells (Western blotting); assay type: cell-based; settings: BMMSC, 3 and 10 days of exposure, FIG. 9
Procedure: Previous work has shown that HMOX1 expression can suppress the differentiation of human bone marrow mesenchymal stem cells (BMMSC) into adipocytes, a process termed adipogenesis [Li et al., Diabetes 57(6):1526-1535 (2008)]. As such, we tested Bach1 modulators for the ability to suppress BMMSC differentiation into adipocytes in the presence of high glucose containing media. Two Bach1 modulators and a null compound were tested to determine the ability of the compounds to induce HMOX1 after 3 and 10 days of exposure to compound.

[5] = test system: human bone marrow mesenchymal stem cells (BMMSC); experiment: Differentiation of bone marrow mesenchymal stem cells to adipocytes (Oil Red staining); assay type: cell-based; settings: high glucose, 21 days continuous exposure, FIG. 10
Excerpt: In this assay, the cells are continuously exposed to compound for 21 days and then tested for the presence of oil-Red staining lipid droplets.

[6] = test system: NHLF cells; experiment: ROS measurements (H2DCF-DA imaging); assay type: cell-based, human; settings: 1 hr, cell-by-cell imaging, FIG. 3A/3B
Procedure: Secondary growth of NHLF cells were used for all assays. Cells were cultured as above. Cells were plated into 384-well BD-Optilux Plates at 2,000 cells/well and cultured overnight at 37° C. and 5% CO2. The following day, cell were washed and 2,7-dihydrodichlorofluorescin diacetate (H2DCF-DA), 10 μM ferric ammonium citrate (FAC), and Hoechst stain were added to cells for 30 min. The cells were washed once with PBS to remove any H2DCF-DA not taken up by cells. Test compounds were prepared in FBM-2 media at the desired concentrations. The plates and stain-treated cells were incubated with test compounds for 1 hr at 37° C. and 5% CO2. Following the incubation period, ROS generation was determined by imaging the cells on a GE INcell 1000 imager (Hoechst Ex. 360 Em. 535; H2DCF-DA 488 Ex. 480 Em. 535). ROS levels were determined and quantified using GE IN Cell Analyzer Software.
In addition to gene profiling, the requirement for ROS generation or chemical reactivity was tested. ROS generation was measured using an automated imaging technique. Compound 13 as well as two other compounds that were found in the screening set were tested in this experiment. Untreated NHLF cells, NHLF cells treated with the HMOX1 inducer CoPP (a negative control), and NHLF cells treated with curcumin or celestrol (positive controls) were included as controls. […] Further experiments were also conducted on chemical derivatives of Compound 13. In those experiments, all compounds tested were found not to induce an elevation of ROS levels in the cell (FIG. 3B). Thus, Compound 13 and related compounds represent a class of agents that elevate HMOX1 production without elevating ROS production.

[7] = test system: HMOX1; experiment: Effect of NAC on compound induction of HMOX gene expression; assay type: cell-based, human; settings: NHLF cells pretreated with 5 mM NAC 1 hr, compound 6 h, FIG. 4
Procedure: NHLF cells were grown to 80% confluency and harvested by washing once with HEPES and then trypsinizing. Equal numbers (7×10^4 cells per well) of NHLF cells were plated in 96 well tissue culture (Corning) plates. Cells were incubated overnight in FGM-2 medium prior to exposure to compound. Cells were pretreated with 5 mM N-acetyl cysteine for 1 hr. Cells were treated with either DMSO or compound for 6 h. Preparation of cell lysates was carried out according to Quantigene Reagent system 2.0 protocol (Panomics). Heme oxygenase mRNA induction was detected from cell lysate using the Quantigene Plex 2.0 Assay Kit (Panomics) on the Luminex platform (BIO-RAD). Expression of GAPDH mRNA was used as the internal control for the Quantigen Plex 2.0 Assay. Heme oxygenase data represents the fold change, normalized to control values, above DMSO treated cells.
A further test of the hypothesis that Compound 13 induces HMOX1 with minimal alteration of cellular redox levels or chemical reactivity was carried out by treating cells with N-acetyl cysteine (NAC). This compound acts to restore cellular glutathione levels and thus prevent oxidative stress. The degree to which NAC can suppress HMOX1 induction is an indicator of the amount of chemical reactivity or ROS stress that a compound is imposing on the cell and thus activating phase II gene transcription. […] Coupled with the data shown in FIG. 3, it is concluded that Compound 13 induces HMOX1 with minimal elevation of ROS or NAC-sensitive chemical reactivity.

[8] = test system: Nrf2; experiment: HMOX1 mRNA induction after Nrf2 siRNA silencing; assay type: cell-based, human; settings: NHLF cells, 50 nM siRNA 48 hours, FIG. 5
Procedure: Small interfering RNA targeting Nrf-2 (cat# SI03246614) or KEAP-1 (cat# SI03246439) were obtained from Qiagen at 20 nmol/tube. Negative control siRNA (cat#1027280) was also obtained from Qiagen. Lyophilized siRNA in each tube was resuspended with 1 ml of the provided siRNA Suspension Buffer to make a stock solution of 20 μM and tubes were heated at 90° C. for one minute and then at 37° C. for one hour prior to initial use.
Normal human lung fibroblasts were plated at 5000 cells/well in 96-well plates and allowed to attach. Prior to experiments, well s containing the cells were refreshed with 30 μl of complete growth medium. For each siRNA type, a 4× concentration (200 nM) of siRNA was prepared by adding 11 μl of siRNA stock into 1.1 ml of serum-free medium containing 9 μl/ml of SILENTFECT Lipid Reagent (BioRad, cat#170-3361). This solution was incubated at room temperature for 20 minutes prior to adding 10 μl into each well for a final concentration of 50 nM siRNA. Cells were incubated with siRNA for 48 hours, after which they were treated with compound for either 5 hours (QuantiGene RNA assay) or 15 hours (protein immunofluorescence assay).
The predicted response profile is that silencing of Nrf2 should reduce the amount of HMOX1 induction by Compound 13 and other HMOX1 inducers that are electrophiles or reactive compounds. To that end, Compound 13 and other tool compounds were tested in cells that were treated with siRNA directed to Nrf2. Following gene silencing with specific siRNA or control siRNA, the ability of tool compounds to induce HMOX1 mRNA was determined.

CNC(=O)c1ccc2[nH]c(Nc3nc4ccc(OC(F)(F)F)cc4s3)nc2c1 [Compound 7, 2-(6-Trifluoromethoxy-benzothiazol-2-ylamino)-1H-benzoimidazole-5-carboxylic acid methylamide]
luciferase activity of HMOX1 mARE reporter [1]: able to induce luciferase activity in the presence or absence of Bach1 protein expression; also recorded: can overcome this repression

Cn1c(Nc2nc3ccc(OC(F)(F)F)cc3s2)nc2cc(C(=O)NCCOCCO)ccc21 [Compound 10, 1-Methyl-2-(6-trifluoromethoxy-benzothiazol-2-ylamino)-1H-benzoimidazole-5-carboxylic acid [2-(2-hydroxy-ethoxy)-ethyl]-amide]
protection against cisplatin toxicity [2]: near-total cellular protection; also recorded: protect the cells from CDDP-mediated toxicity
HMOX1 induction [3]: induced HMOX1
HMOX1 induction by Western blotting [4]: induced HMOX1
inhibition of adipogenesis (Oil Red staining) [5]: suppress Oil-O red staining; also recorded: inhibited stem cell differentiation

CC(C)(C)N1C(=O)C=C(c2cccc(N(CC(=O)c3ccc(Cl)cc3Cl)C(=O)Cc3ccc(Br)cc3)c2)S1(=O)=O [Compound 14, 2-(4-Bromo-phenyl)-N-[3-(2-tert-butyl-1,1,3-trioxo-2,3-dihydro-1H-isothiazol-5-yl)-phenyl]-N-[2-(2,4-dichloro-phenyl)-2-oxo-ethyl]-acetamide]
ROS production (in words) [6]: elevated ROS levels to a greater degree than did Compound 13; also recorded: little increase in ROS production
effect of N-acetyl cysteine (NAC) on HMOX1 induction [7]: inhibited nearly fully by NAC; also recorded: fully suppressed in the presence of NAC
HMOX1 mRNA induction with siRNA directed to Nrf2 [8]: affected by the presence of the siRNA for Nrf2; also recorded: requires Nrf2 for full induction of HMOX1 mRNA

Cn1c(Nc2nc3ccc(Cl)cc3s2)nc2cc(C(=O)NCC(=O)O)ccc21 [Compound 12, {[2-(6-Chloro-benzothiazol-2-ylamino)-1-methyl-1H-benzoimidazole-5-carbonyl]-amino}-acetic acid]
protection against cisplatin toxicity [2]: failed to protect NHLF cells against cisplatin toxicity; also recorded: failed to protect cells from CDDP-mediated cytotoxicity
HMOX1 induction [3]: inactive HMOX1 inducers; also recorded: did not induce HMOX1
HMOX1 induction by Western blotting [4]: failed to induce HMOX1
inhibition of adipogenesis (Oil Red staining) [5]: fails to inhibit adipogenesis; also recorded: failed to do so

CC(C)(C)N1C(=O)C=C(c2cccc(-n3cc(-c4ccc(Cl)cc4Cl)nc3Cc3ccc(Br)cc3)c2)S1(=O)=O [Compound 15, 5-{3-[2-(4-Bromo-benzyl)-4-(2,4-dichloro-phenyl)-imidazol-1-yl]-phenyl}-2-tert-butyl-1,1-dioxo-1,2-dihydro-isothiazol-3-one]
ROS production (in words) [6]: elevated ROS levels to a greater degree than did Compound 13; also recorded: little increase in ROS production
effect of N-acetyl cysteine (NAC) on HMOX1 induction [7]: inhibited nearly fully by NAC; also recorded: fully suppressed in the presence of NAC
HMOX1 mRNA induction with siRNA directed to Nrf2 [8]: affected by the presence of the siRNA for Nrf2; also recorded: requires Nrf2 for full induction of HMOX1 mRNA

CN(C)C(=O)CNC(=O)c1ccc2c(c1)nc(Nc1nc3ccc(OC(F)(F)F)cc3s1)n2C [Compound 9, 1-Methyl-2-(6-trifluoromethoxy-benzothiazol-2-ylamino)-1H-benzoimidazole-5-carboxylic acid dimethylcarbamoylmethyl-amide]
protection against cisplatin toxicity [2]: near-total cellular protection; also recorded: protect the cells from CDDP-mediated toxicity
HMOX1 induction [3]: induced HMOX1
HMOX1 induction by Western blotting [4]: induced HMOX1
inhibition of adipogenesis (Oil Red staining) [5]: suppress Oil-O red staining; also recorded: inhibited stem cell differentiation
